Patent publication US12371428B2 (Exelixis, Inc., priority 2019, dated 2025)
Structures can show the parent of a compound that is named as a salt.

Tests used:
[1] = target: Human MER (residues 528-999) (Homo sapiens (Human), UniProt Q12866); assay: Human Mer kinase assay, HTRF KinEase (Example C-2); format: biochemical; settings: protocol of Example C-2 (other compounds)
Method in brief: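 HTRF KinEase TK assay with MER 528-999 (1 ng/well) in enzymatic buffer plus 5 mM MgCl2 and 1 mM DTT, biotinylated peptide substrate and ATP at Km (40 μM), 3% DMSO final, 60 min at room temperature. Stopped with EDTA detection mix (SA-XL665, TK antibody-Eu3+), read at 665/620 nm after 60 min; IC50 from 10-point 4-parameter fit, normalized to DMSO and 1 μM reference.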

[2] = target: KDR (phospho-KDR, VEGF165-stimulated HUVEC cells) (Homo sapiens (Human), UniProt P35968); assay: KDR autophosphorylation ELISA in HUVEC cells (Example G); format: cell-based; settings: cellular activity; KDR autophosphorylation ELISA in HUVEC cells
Chain of KDR (phospho-KDR, VEGF165-stimulated HUVEC cells) (P35968 20-1356): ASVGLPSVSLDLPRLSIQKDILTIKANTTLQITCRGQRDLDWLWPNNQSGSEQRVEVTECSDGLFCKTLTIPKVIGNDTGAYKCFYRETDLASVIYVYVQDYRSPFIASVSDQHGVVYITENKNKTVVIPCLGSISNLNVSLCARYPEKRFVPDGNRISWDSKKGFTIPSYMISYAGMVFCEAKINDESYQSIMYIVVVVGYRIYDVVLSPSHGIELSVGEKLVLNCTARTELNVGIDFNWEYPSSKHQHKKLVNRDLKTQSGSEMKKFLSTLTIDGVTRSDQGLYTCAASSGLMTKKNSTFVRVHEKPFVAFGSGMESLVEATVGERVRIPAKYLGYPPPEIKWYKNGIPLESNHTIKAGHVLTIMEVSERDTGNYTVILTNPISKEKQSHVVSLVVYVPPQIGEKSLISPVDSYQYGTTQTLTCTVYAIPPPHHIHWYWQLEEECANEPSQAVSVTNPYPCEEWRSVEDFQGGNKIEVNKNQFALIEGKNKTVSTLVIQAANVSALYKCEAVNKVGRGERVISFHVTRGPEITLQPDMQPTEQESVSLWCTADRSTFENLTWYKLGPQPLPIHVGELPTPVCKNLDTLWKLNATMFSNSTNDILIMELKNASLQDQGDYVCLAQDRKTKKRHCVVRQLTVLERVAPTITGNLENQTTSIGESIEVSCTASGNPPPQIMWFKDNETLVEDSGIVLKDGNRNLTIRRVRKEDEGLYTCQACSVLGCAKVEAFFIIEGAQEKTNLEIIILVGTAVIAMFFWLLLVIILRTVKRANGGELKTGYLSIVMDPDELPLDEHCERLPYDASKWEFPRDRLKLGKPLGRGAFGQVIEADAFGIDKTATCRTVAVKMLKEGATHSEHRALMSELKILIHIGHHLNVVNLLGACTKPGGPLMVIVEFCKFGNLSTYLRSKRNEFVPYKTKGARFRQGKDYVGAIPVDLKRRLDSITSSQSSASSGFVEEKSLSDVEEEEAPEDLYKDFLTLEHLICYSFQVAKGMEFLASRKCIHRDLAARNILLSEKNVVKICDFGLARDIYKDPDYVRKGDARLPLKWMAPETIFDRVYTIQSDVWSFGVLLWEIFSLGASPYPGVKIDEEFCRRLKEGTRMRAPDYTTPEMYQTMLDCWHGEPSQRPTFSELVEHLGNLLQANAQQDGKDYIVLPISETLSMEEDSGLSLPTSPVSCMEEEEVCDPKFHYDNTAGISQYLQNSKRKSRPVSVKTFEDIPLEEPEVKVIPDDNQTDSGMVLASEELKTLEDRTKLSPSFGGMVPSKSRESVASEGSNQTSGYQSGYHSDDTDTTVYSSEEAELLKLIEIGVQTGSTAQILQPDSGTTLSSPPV
Method in brief: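 HUVEC cells, serum-starved 24 h, were treated 1 h with an 8-point compound dilution (0.3% DMSO) and then stimulated with 100 ng/mL VEGF165 for 5 min. Phospho-KDR in lysates was quantified by sandwich ELISA against a phospho-KDR standard. IC50 from a 4-parameter logistic fit, normalised between stimulated DMSO and unstimulated controls.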

[3] = target: Human KDR (residues 790-1356) (Homo sapiens (Human), UniProt P35968); assay: Human KDR kinase assay, HTRF KinEase (Example B-2); format: biochemical; settings: protocol of Example B-2 (other compounds)
Chain of Human KDR (residues 790-1356) (P35968 790-1356): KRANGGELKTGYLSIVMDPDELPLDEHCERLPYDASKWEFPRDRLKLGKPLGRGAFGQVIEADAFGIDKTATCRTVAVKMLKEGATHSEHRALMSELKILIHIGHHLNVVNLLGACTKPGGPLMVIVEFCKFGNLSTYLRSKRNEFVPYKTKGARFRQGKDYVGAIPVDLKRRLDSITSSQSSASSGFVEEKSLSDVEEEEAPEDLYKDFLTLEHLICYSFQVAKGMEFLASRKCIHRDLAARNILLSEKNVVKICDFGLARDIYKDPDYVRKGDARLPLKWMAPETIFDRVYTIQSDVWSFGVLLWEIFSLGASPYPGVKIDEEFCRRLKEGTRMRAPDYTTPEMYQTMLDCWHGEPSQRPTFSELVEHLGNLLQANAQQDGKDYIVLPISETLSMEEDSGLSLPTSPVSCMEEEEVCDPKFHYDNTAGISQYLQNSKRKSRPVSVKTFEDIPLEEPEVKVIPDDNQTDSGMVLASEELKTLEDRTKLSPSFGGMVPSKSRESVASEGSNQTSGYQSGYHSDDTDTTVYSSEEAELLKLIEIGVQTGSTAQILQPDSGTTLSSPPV
Method in brief: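 Human KDR residues 790-1356 (0.1 ng/well) in buffer with 5 mM MgCl2, 1 mM MnCl2, 1 mM DTT, biotinylated peptide substrate, ATP at Km (4.0 μM), 3% DMSO, 10 compound concentrations; 40 min, room temperature. EDTA stop, streptavidin-XL665/Eu-TK antibody HTRF read 665/620 nm; 4-parameter IC50.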

Chain of Human MER (residues 528-999) (Q12866 528-999): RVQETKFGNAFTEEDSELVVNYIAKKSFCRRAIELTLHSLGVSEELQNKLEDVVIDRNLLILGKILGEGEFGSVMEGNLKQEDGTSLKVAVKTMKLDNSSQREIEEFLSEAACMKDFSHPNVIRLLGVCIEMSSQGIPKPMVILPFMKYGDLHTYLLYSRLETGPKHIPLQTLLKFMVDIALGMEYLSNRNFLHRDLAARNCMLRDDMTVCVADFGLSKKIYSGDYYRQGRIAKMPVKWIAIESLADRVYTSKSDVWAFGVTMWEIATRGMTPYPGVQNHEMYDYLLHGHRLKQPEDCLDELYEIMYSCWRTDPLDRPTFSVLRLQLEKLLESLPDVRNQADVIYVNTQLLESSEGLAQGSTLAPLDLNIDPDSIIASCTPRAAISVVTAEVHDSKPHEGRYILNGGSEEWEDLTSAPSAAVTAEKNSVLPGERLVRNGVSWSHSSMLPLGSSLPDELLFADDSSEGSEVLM

Row | IC50 [1] [nM] | IC50 [2] [nM] | IC50 [3] [nM] | Structure (SMILES)
1 | < 100 | < 100 | > 300 | COc1cnc2c(Oc3ccc(NC(=O)c4nnc(C)c(-c5ccc(F)cc5C)c4O)cc3F)ccnc2c1 (single isomer, unassigned) [Compound 249B, N-[3-Fluoro-4-[(7-methoxy-1,5-naphthyridin-4-yl)oxy]phenyl]-5-(4-fluoro-2-methylphenyl)-4-hydroxy-6-methylpyridazine-3-carboxamide]
2 | < 100 | < 100 | > 300 | COc1cnc2c(Oc3ccc(NC(=O)c4nnc(C)c(-c5ccc(F)cc5C)c4O)cc3F)ccnc2c1 (single isomer, unassigned) [Compound 249C, N-[3-Fluoro-4-[(7-methoxy-1,5-naphthyridin-4-yl)oxy]phenyl]-5-(4-fluoro-2-methylphenyl)-4-hydroxy-6-methylpyridazine-3-carboxamide]
3 | < 100 | > 300 | < 100 | COc1cc2nccc(Oc3ccc(NC(=O)c4cn(C(C)C)c(C)c(-c5cccc(F)c5)c4=O)cc3F)c2nc1OC [Compound 30, N-[4-[(6,7-Dimethoxy-1,5-naphthyridin-4-yl)oxy]-3-fluorophenyl]-5-(3-fluorophenyl)-6-methyl-4-oxo-1-propan-2-ylpyridine-3-carboxamide hydrochloride]
4 | < 100 | > 300 | < 100 | COc1ccc(-c2c(C)n(C(C)C)cc(C(=O)Nc3ccc(Oc4ccnc5cc(OC)c(OC)nc45)c(F)c3)c2=O)cc1 [Compound 31, N-[4-[(6,7-dimethoxy-1,5-naphthyridin-4-yl)oxy]-3-fluorophenyl]-5-(4-methoxyphenyl)-6-methyl-4-oxo-1-propan-2-ylpyridine-3-carboxamide hydrochloride]
5 | < 100 | > 300 | 100 to 300 | COc1cc2nccc(Oc3ccc(NC(=O)c4cn(C(C)C)c(C)c(-c5ccc(F)cc5C)c4=O)cc3F)c2nc1OC [Compound 32, N-[4-[(6,7-Dimethoxy-1,5-naphthyridin-4-yl)oxy]-3-fluorophenyl]-5-(4-fluoro-2-methylphenyl)-6-methyl-4-oxo-1-propan-2-ylpyridine-3-carboxamide hydrochloride]
6 | < 100 | < 100 | < 100 | COc1cc2nccc(Oc3ccc(NC(=O)c4cn(C)cc(-c5ccccc5)c4=O)cc3F)c2nc1OC [Compound 33, N-[4-[(6,7-Dimethoxy-1,5-naphthyridin-4-yl)oxy]-3-fluorophenyl]-1-methyl-4-oxo-5-phenylpyridine-3-carboxamide hydrochloride]
7 | < 100 | < 100 | < 100 | COc1cc2nccc(Oc3ccc(NC(=O)c4cn(C)cc(-c5cccc(F)c5)c4=O)cc3F)c2nc1OC [Compound 35, N-[4-[(6,7-Dimethoxy-1,5-naphthyridin-4-yl)oxy]-3-fluorophenyl]-5-(3-fluorophenyl)-1-methyl-4-oxopyridine-3-carboxamide hydrochloride]
8 | < 100 | 100 to 300 | < 100 | COc1cc2nccc(Oc3ccc(NC(=O)c4cn(C)c(C)c(-c5ccccc5)c4=O)cc3F)c2nc1OC [Compound 36, N-[4-[(6,7-Dimethoxy-1,5-naphthyridin-4-yl)oxy]-3-fluorophenyl]-1,6-dimethyl-4-oxo-5-phenylpyridine-3-carboxamide hydrochloride]
9 | < 100 | 100 to 300 | 100 to 300 | COc1cc2nccc(Oc3ccc(NC(=O)c4cn(C)c(C)c(-c5cccc(F)c5)c4=O)cc3F)c2nc1OC [Compound 37, N-[4-[(6,7-Dimethoxy-1,5-naphthyridin-4-yl)oxy]-3-fluorophenyl]-5-(3-fluorophenyl)-1,6-dimethyl-4-oxopyridine-3-carboxamide hydrochloride]
10 | < 100 | < 100 | > 300 | COc1cnc2c(Oc3ccc(NC(=O)c4cnc(C)c(-c5ccc(F)cc5C)c4O)cc3)ccnc2c1 [Compound 176, 5-(4-Fluoro-2-methylphenyl)-4-hydroxy-N-[4-[(7-methoxy-1,5-naphthyridin-4-yl)oxy]phenyl]-6-methylpyridine-3-carboxamide]
11 | < 100 | < 100 | < 100 | COc1cc2nccc(Oc3ccc(NC(=O)c4c(C)nc(C)c(-c5ccc(F)cc5C)c4O)cc3F)c2nc1OC [Compound 177, N-[4-[(6,7-Dimethoxy-1,5-naphthyridin-4-yl)oxy]-3-fluorophenyl]-5-(4-fluoro-2-methylphenyl)-4-hydroxy-2,6-dimethylpyridine-3-carboxamide]
12 | < 100 | < 100 | < 100 | COc1cnc2c(Oc3ccc(NC(=O)c4c(C)nc(C)c(-c5ccc(F)cc5C)c4O)cc3F)ccnc2c1 [Compound 178, N-[3-Fluoro-4-[(7-methoxy-1,5-naphthyridin-4-yl)oxy]phenyl]-5-(4-fluoro-2-methylphenyl)-4-hydroxy-2,6-dimethylpyridine-3-carboxamide]
13 | < 100 | < 100 | < 100 | CCc1nc(C)c(-c2ccc(F)cc2)c(O)c1C(=O)Nc1ccc(Oc2ccnc3cc(OC)c(OC)nc23)c(F)c1 [Compound 179, N-[4-[(6,7-Dimethoxy-1,5-naphthyridin-4-yl)oxy]-3-fluorophenyl]-2-ethyl-5-(4-fluorophenyl)-4-hydroxy-6-methylpyridine-3-carboxamide]
14 | < 100 | < 100 | < 100 | CCc1nc(C)c(-c2ccc(F)cc2)c(O)c1C(=O)Nc1ccc(Oc2ccnc3cc(OC)cnc23)c(F)c1 [Compound 180, 2-Ethyl-N-[3-fluoro-4-[(7-methoxy-1,5-naphthyridin-4-yl)oxy]phenyl]-5-(4-fluorophenyl)-4-hydroxy-6-methylpyridine-3-carboxamide]
15 | < 100 | > 300 | > 300 | COc1cnc2c(Oc3ccc(NC(=O)c4cn(C)c(C)c(-c5ccc(F)cc5C)c4=O)cc3F)ccnc2c1 [Compound 181, N-[3-Fluoro-4-[(7-methoxy-1,5-naphthyridin-4-yl)oxy]phenyl]-5-(4-fluoro-2-methylphenyl)-1,6-dimethyl-4-oxopyridine-3-carboxamide]
16 | < 100 | < 100 | 100 to 300 | CCc1nc(C)c(-c2ccc(F)cc2)c(O)c1C(=O)Nc1ccc(Oc2ccnc3ccc(OC)nc23)c(F)c1 [Compound 182, 2-Ethyl-N-[3-fluoro-4-[(6-methoxy-1,5-naphthyridin-4-yl)oxy]phenyl]-5-(4-fluorophenyl)-4-hydroxy-6-methylpyridine-3-carboxamide]
17 | < 100 | > 300 | > 300 | COc1ccc2nccc(Oc3ccc(NC(=O)c4cn(C)c(C)c(-c5ccc(F)cc5C)c4=O)cc3F)c2n1 [Compound 183, N-[3-Fluoro-4-[(6-methoxy-1,5-naphthyridin-4-yl)oxy]phenyl]-5-(4-fluoro-2-methylphenyl)-1,6-dimethyl-4-oxopyridine-3-carboxamide]
18 | < 100 | < 100 | < 100 | COCc1nc(C)c(-c2ccc(F)cc2)c(O)c1C(=O)Nc1ccc(Oc2ccnc3cc(OC)c(OC)nc23)c(F)c1 [Compound 184, N-[4-[(6,7-Dimethoxy-1,5-naphthyridin-4-yl)oxy]-3-fluorophenyl]-5-(4-fluorophenyl)-4-hydroxy-2-(methoxymethyl)-6-methylpyridine-3-carboxamide]
19 | < 100 | < 100 | < 100 | COCc1nc(C)c(-c2ccc(F)cc2)c(O)c1C(=O)Nc1ccc(Oc2ccnc3cc(OC)cnc23)cc1 [Compound 185, 5-(4-Fluorophenyl)-4-hydroxy-2-(methoxymethyl)-N-[4-[(7-methoxy-1,5-naphthyridin-4-yl)oxy]phenyl]-6-methylpyridine-3-carboxamide]
20 | < 100 | < 100 | < 100 | COCc1nc(C)c(-c2ccc(F)cc2)c(O)c1C(=O)Nc1ccc(Oc2ccnc3cc(OC)cnc23)c(F)c1 [Compound 186, N-[3-Fluoro-4-[(7-methoxy-1,5-naphthyridin-4-yl)oxy]phenyl]-5-(4-fluorophenyl)-4-hydroxy-2-(methoxymethyl)-6-methylpyridine-3-carboxamide]
21 | < 100 | < 100 | < 100 | CCc1nc(C)c(-c2ccc(F)cc2)c(O)c1C(=O)Nc1ccc(Oc2ccnc3cc(OC)cnc23)cc1 [Compound 188, 2-Ethyl-5-(4-fluorophenyl)-4-hydroxy-N-[4-[(7-methoxy-1,5-naphthyridin-4-yl)oxy]phenyl]-6-methylpyridine-3-carboxamide]
22 | < 100 | < 100 | 100 to 300 | COCc1nc(C)c(-c2ccc(F)cc2)c(O)c1C(=O)Nc1ccc(Oc2ccnc3ccc(OC)nc23)c(F)c1 [Compound 189, N-[3-Fluoro-4-[(6-methoxy-1,5-naphthyridin-4-yl)oxy]phenyl]-5-(4-fluorophenyl)-4-hydroxy-2-(methoxymethyl)-6-methylpyridine-3-carboxamide]
